The source of these data is paper PMC3426641 (Biochemistry, 2012).

In series [1] the target is T1, Eis_Mtb (Mycobacterium tuberculosis, UniProt P9WFK7). The series can be described thus: biochemical.
Series [2] concerns the target T2, Eis_Msm (Mycobacterium smegmatis, UniProt A0QY29). The series can be described thus: biochemical.
The target of series [3] is T2, Eis_Msm. The experiment in a line: Number of acetylations of AGs by Eis_Msm. It counts as biochemical. As to conditions: number of acetylations per AG; UV-Vis assay and LCMS, 25 °C, pH 8.0.
The target of series [4] is T2, Eis_Msm.
The target in series [5] is T1, Eis_Mtb.
Series [6] deals with T1, Eis_Mtb. The series can be described thus: Inhibition of Eis_Mtb NEO acetylation. It counts as biochemical.
In series [7] the target is T2, Eis_Msm. The experiment in a line: Inhibition of Eis_Msm NEO acetylation. It counts as biochemical. To be noted: for mode of inhibition: Eis_Msm, against NEO.
For series [8], the system named is NC[C@@H]1O[C@H](O[C@H]2[C@@H](O)[C@H](O[C@@H]3[C@@H](O)[C@H](N)C[C@H](N)[C@H]3O[C@H]3O[C@H](CO)[C@@H](O)[C@H](O)[C@H]3N)O[C@@H]2CO)[C@H](N)[C@@H](O)[C@@H]1O. The experiment in a line: purified protein, by the assay type. As to conditions: other: Eis_Msm, fixed AcCoA 0.1 mM, varying AG, 25 °C, pH 8.0.
Series [9] deals with NC[C@H]1O[C@H](O[C@H]2[C@H](O)[C@@H](O[C@H]3O[C@H](CO)[C@@H](O)[C@H](N)[C@H]3O)[C@H](N)C[C@@H]2N)[C@H](N)C[C@@H]1O. The experiment in a line: purified protein, by the assay type. As to conditions: pH 8.0.
Series [10] has as its system NC[C@H]1O[C@H](O[C@H]2[C@H](O)[C@@H](O)[C@H](N)C[C@@H]2N)[C@H](N)[C@@H](O)[C@@H]1O. The series can be described thus: purified protein, by the assay type. As to conditions: pH 8.0.
Series [11] deals with NC[C@@H]1O[C@H](O[C@H]2[C@@H](O)[C@H](O[C@@H]3[C@@H](O)[C@H](N)C[C@H](N)[C@H]3O[C@H]3O[C@H](CN)[C@@H](O)[C@H](O)[C@H]3N)O[C@@H]2CO)[C@H](N)[C@@H](O)[C@@H]1O. The series can be described thus: purified protein, by the assay type. To be noted: other: Eis_Msm, pH 8.0.
Series [12] has as its system NCC[C@H](O)C(=O)N[C@@H]1C[C@H](N)[C@@H](O[C@H]2O[C@H](CN)[C@@H](O)[C@H](O)[C@H]2O)[C@H](O)[C@H]1O[C@H]1O[C@H](CO)[C@@H](O)[C@H](N)[C@H]1O. The series can be described thus: purified protein, by the assay type. As to conditions: pH 8.0.
The subject of series [13] is CCN[C@@H]1C[C@H](N)[C@@H](O[C@H]2OC(CN)=CC[C@H]2N)[C@H](O)[C@H]1O[C@H]1OC[C@](C)(O)[C@H](NC)[C@H]1O. The series can be described thus: purified protein, by the assay type. To be noted: other: Eis_Msm, pH 8.0.
For series [14], the system named is CN[C@@H]1[C@@H](O)[C@@H](O[C@@H]2[C@@H](O)[C@H](O[C@H]3OC(CN)=CC[C@H]3N)[C@@H](N)C[C@H]2N)OC[C@]1(C)O. The series can be described thus: purified protein, by the assay type. As to conditions: other: Eis_Msm, pH 8.0.
Setting [15] is: Eis_Msm, fixed AG 0.5 mM, varying AcCoA, 25 °C, pH 8.0.
Where [16] appears, read: other: Eis_Msm, fixed AcCoA 0.1 mM, varying AG, 25 °C.
Where [17] appears, read: fixed AcCoA 0.1 mM, varying AG, 25 °C.
The mark [18] stands for this setting: random sequential mechanism, 25.0 °C.

Read-outs that look alike come from different tables or passages of the source.

T1 sequence (P9WFK7 whole entry): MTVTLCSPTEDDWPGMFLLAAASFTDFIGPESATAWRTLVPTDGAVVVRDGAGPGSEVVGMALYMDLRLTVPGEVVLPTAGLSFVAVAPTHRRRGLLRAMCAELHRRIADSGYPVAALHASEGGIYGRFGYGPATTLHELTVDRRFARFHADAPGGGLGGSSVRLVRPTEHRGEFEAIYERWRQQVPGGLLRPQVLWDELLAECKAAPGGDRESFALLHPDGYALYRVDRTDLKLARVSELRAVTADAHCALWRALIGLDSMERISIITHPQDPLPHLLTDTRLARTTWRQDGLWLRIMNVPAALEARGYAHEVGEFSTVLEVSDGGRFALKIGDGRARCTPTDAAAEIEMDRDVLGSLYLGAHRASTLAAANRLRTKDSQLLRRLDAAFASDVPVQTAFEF

By Kd is commonly meant the free concentration of one partner at which half of the binding sites on the other are occupied at equilibrium, for simple one-to-one binding. Turning to `NCC[C@H](O)C(=O)N[C@@H]1C[C@H](N)[C@@H](O[C@H]2O[C@H](CN)[C@@H](O)[C@H](O)[C@H]2O)[C@H](O)[C@H]1O[C@H]1O[C@H](CO)[C@@H](O)[C@H](N)[C@H]1O` [AMK, amikacin], the Kd at Eis_Mtb [1] is 32 ± 14 µM; on Eis_Msm [2], greater than 1000 µM. The “level of acetylation by Eis from M. smegmatis” value (“level of acetylation by Eis” for short) on Eis_Msm [3] was “tri-acetylated”. Also, on Eis_Msm [4] (setting [15]), the “kcat,AcCoA” value worked out at 0.142 ± 0.026 s⁻¹.
As to `CN[C@@H]1[C@@H](O[C@H]2O[C@H](CO)[C@@H](N)[C@H](O)[C@H]2O)OC2C[C@@H](N)[C@@H](O[C@H]3[C@H](O)[C@@H](O)[C@H](N)C[C@@H]3N)OC2[C@@H]1O` (stereo partly shown) [APR, apramycin], at Eis_Msm [3], the “level of acetylation by Eis” value is “di-acetylated”.
As for `CC(=O)SCCNC(=O)CCNC(=O)[C@H](O)C(C)(C)COP(=O)(O)OP(=O)(O)OC[C@H]1O[C@@H](n2cnc3c(N)ncnc32)[C@H](O)[C@@H]1OP(=O)(O)O` [AcCoA, acetyl-coenzyme A], the “Kd,AcCoA(E) fold smaller than Kd,AcCoA(E•AG)” value on Eis_Msm [4] (Eis_Msm, AG = KAN) is “approximately 17 fold”.
In the case of `CN[C@@H]1C[C@H](N)[C@@H](O)[C@H](O[C@H]2O[C@H](CO)[C@H](O)[C@@H]3O[C@@]4(O[C@@H]23)O[C@H]([C@H](N)CO)[C@H](O)[C@H](O)[C@H]4O)[C@H]1O` [HYG, hygromycin], the “level of acetylation by Eis” value on Eis_Msm [3] is “mono-acetylated”.
For the molecule `NC[C@H]1O[C@H](O[C@H]2[C@H](O)[C@@H](O)[C@H](N)C[C@@H]2N)[C@H](N)[C@@H](O)[C@@H]1O` [NEA, neamine], the equilibrium dissociation constant (Kd) at Eis_Mtb [1] amounted to 95 ± 50 µM; on Eis_Msm [2], 141 ± 60 µM. Moreover, the “level of acetylation by Eis” value on Eis_Msm [3] was “tri-acetylated”.
Take `NC[C@@H]1O[C@H](O[C@H]2[C@@H](O)[C@H](O[C@@H]3[C@@H](O)[C@H](N)C[C@H](N)[C@H]3O[C@H]3O[C@H](CN)[C@@H](O)[C@H](O)[C@H]3N)O[C@@H]2CO)[C@H](N)[C@@H](O)[C@@H]1O` [NEO, neomycin B]: the Kd at Eis_Mtb [1] is 75 ± 41 µM; at Eis_Msm [2], greater than 1000 µM. For the same molecule, the “level of acetylation by Eis” value at Eis_Msm [3] is “tri-acetylated”. The “kcat,AcCoA” value at Eis_Msm [4] (25 °C, pH 8.0) turned out to be 0.546 ± 0.065 s⁻¹.
Turning to `CCN[C@@H]1C[C@H](N)[C@@H](O[C@H]2OC(CN)=CC[C@H]2N)[C@H](O)[C@H]1O[C@H]1OC[C@](C)(O)[C@H](NC)[C@H]1O` [NET, netilmicin], the values for the Kd at Eis_Mtb [1] and at Eis_Msm [2] were 31 ± 10 µM and 108 ± 35 µM, respectively. On Eis_Msm [3], the “level of acetylation by Eis” value is “di-acetylated”. Further, the “kcat,AcCoA” value at Eis_Msm [4] (setting [15]) came to 0.819 ± 0.121 s⁻¹.
The Km is the substrate concentration at which the rate is half of its maximum. As to `NC[C@@H]1O[C@H](O[C@H]2[C@@H](O)[C@H](O[C@@H]3[C@@H](O)[C@H](N)C[C@H](N)[C@H]3O[C@H]3O[C@H](CO)[C@@H](O)[C@H](O)[C@H]3N)O[C@@H]2CO)[C@H](N)[C@@H](O)[C@@H]1O` [PAR, paromomycin], the “kcat,AG” value at Eis_Mtb [5] came out at 0.15 ± 0.01 s⁻¹. Besides, the Km on Eis_Mtb [5] (read-out: Km,AG) worked out at 96 ± 20 µM. In addition, at Eis_Msm [3], the “level of acetylation by Eis” value was “tri-acetylated”.
Turning to `NC[C@H]1O[C@H](O[C@H]2[C@H](O[C@@H]3O[C@H](CO)[C@@H](O)[C@H]3O)[C@@H](O)[C@H](N)C[C@@H]2N)[C@H](N)[C@@H](O)[C@@H]1O` [RIB, ribostamycin], the “level of acetylation by Eis” value at Eis_Msm [3] is “tri-acetylated”.
Turning to `CN[C@@H]1[C@@H](O)[C@@H](O[C@@H]2[C@@H](O)[C@H](O[C@H]3OC(CN)=CC[C@H]3N)[C@@H](N)C[C@H]2N)OC[C@]1(C)O` [SIS, sisomicin], the Kd at Eis_Mtb [1] was found to be 340 ± 140 µM; at Eis_Msm [2], 179 ± 54 µM. Moreover, on Eis_Msm [3], the “level of acetylation by Eis” value is given as “tri-acetylated”. Besides, at Eis_Msm [4] (25 °C, pH 8.0), the “kcat,AcCoA” value came out at 0.620 ± 0.063 s⁻¹.
`CN[C@@H]1[C@H](O)[C@H](NC)[C@H]2O[C@@]3(O)C(=O)C[C@@H](C)O[C@H]3O[C@@H]2[C@H]1O` [SPT, spectinomycin]: the “level of acetylation by Eis” value at Eis_Msm [3] is listed as “not modified”.
Same read-out and setting: the value for `[H]/N=C(/N)N[C@H]1[C@H](O)[C@@H](O)[C@H](O[C@@H]2O[C@@H](C)[C@](O)(C=O)[C@H]2O[C@@H]2O[C@@H](CO)[C@H](O)[C@@H](O)[C@@H]2NC)[C@@H](N/C(N)=N\[H])[C@@H]1O` [STR, streptomycin] was “not modified”; that for `NC[C@H]1O[C@H](O[C@H]2[C@H](O)[C@@H](O[C@H]3O[C@H](CO)[C@@H](O)[C@H](N)[C@H]3O)[C@H](N)C[C@@H]2N)[C@H](N)C[C@@H]1O` [TOB, tobramycin] was “tetra-acetylated”.
The Ki is a measure of affinity in units of concentration, obtained from inhibition or displacement. A word on the IC50: it is the concentration at which inhibition is half-maximal. High values mean weaker potency, low ones greater potency. Take `[H]/N=C(\N/C(=N/[H])NCCCCCCNC(=N)NC(=N)Nc1ccc(Cl)cc1)Nc1ccc(Cl)cc1` [chlorhexidine (1), chlorhexidine]: the values for the Ki on Eis_Mtb [6] and at Eis_Msm [7] were 0.105 ± 0.024 µM and 0.47 ± 0.15 µM, respectively. Also, 1.85 µM corresponded to half-maximal inhibition against Eis_Msm [7] (IC50). The mode of inhibition entry on Eis_Msm [7] (listed as 1) is “AG-competitive mode”; on Eis_Msm [7] (listed as Chlorhexidine (1)), “competitive inhibitor of NEO”.
One may read the kcat as the maximal rate divided by the concentration of active sites. As for “Eis_Msm (Mycolicibacterium smegmatis MC2 155)”, the Michaelis constant (Km) in series [8] amounted to 153 ± 55 µM; in series [9] (setting [16]), 131 ± 22 µM; in [10] (setting [16]), 359 ± 101 µM; in series [11] (setting [17]), 314 ± 77 µM; in [12] (setting [16]), 251 ± 55 µM; in series [13] (setting [17]), 197 ± 30 µM. In addition, the Km in series [14] (setting [17]) is 82 ± 8 µM. Also, the kcat in series [8] was 0.035 ± 0.006 s⁻¹; in [9] (setting [16]), 0.267 ± 0.016 s⁻¹; in series [10] (setting [16]), 0.176 ± 0.027 s⁻¹; in [11] (setting [18]) it was greater than 1 s⁻¹; in series [12] (other: Eis_Msm, random sequential mechanism, 25.0 °C) it was greater than 0.3 s⁻¹; in [13] (setting [17]) it was 0.835 ± 0.057 s⁻¹. Moreover, the kcat in [13] (setting [18]) was 1 ± 0.4 s⁻¹; in [14] (setting [17]) it was 0.206 ± 0.006 s⁻¹; in [14] (setting [18]), 0.85 ± 0.25 s⁻¹.
“Eis_Mtb (Mycobacterium tuberculosis H37Rv)”: the Km in series [9] (25.0 °C) came to 116 ± 17 µM; in series [10] (25.0 °C), 137 ± 57 µM; in [12] (25.0 °C), 113 ± 35 µM. Further, the values for the kcat in series [9] (25.0 °C), in [10] (25.0 °C) and in [12] (25.0 °C) were 0.21 ± 0.01 s⁻¹, 0.064 ± 0.01 s⁻¹ and 0.03 ± 0.004 s⁻¹, respectively.
Turning to kanamycin A, at Eis_Mtb [5], the “kcat (microscopic rate constant of acetylation)” value was determined as 0.16 ± 0.07 s⁻¹ and the “kcat,AcCoA” value came out at 0.094 ± 0.004 s⁻¹. In addition, the “level of acetylation by Eis” value on Eis_Msm [3] is “di-acetylated”. The “kcat,AcCoA” value on Eis_Msm [4] (setting [15]) is 0.398 ± 0.060 s⁻¹. The “kcat,AG” value on Eis_Msm [4] (Eis_Msm, fixed AcCoA 0.1 mM, varying AG, 25 °C, pH 8.0) is 0.108 ± 0.005 s⁻¹.
